# Read-outs that look alike come from different tables or passages of the source.
# Columns and labels:
# Format in all cases: cell-based
# Pyricularia oryzae = test: microbe, parasite or virus in culture; settings: for inhibition at 5 µg/mL / inhibition at 50 µg/mL: Pyricularia oryzae
# Fusarium oxysporum = test: Plate medium fungicidal assay, cucumber fusarium wilt F.c (Experimental Example 5); settings: for inhibition at 5 µg/mL / inhibition at 50 µg/mL: Fusarium oxysporum
# Description: (§1) In this Experimental Example, the fungicidal effects of the inventive compounds on various phytopathogenic fungi for plants and hazardous microorganism for industrial materials were examined by the methods described below. Each inventive compound was dissolved in 2 ml of dimethyl sulfoxide. 0.6 ml of this solution was added to 60 nil of a PDA medium (potato dextrose agar medium) at about 60 degrees C., which was mixed thoroughly in a 100-ml conical flask, and poured into a dish, where it was solidified, thereby obtaining a plate medium containing the inventive compound at 50 mg/L and 5 mg/L. On the other hand, a subject microorganism previously cultured on a plate medium was cut out using a cork borer whose diameter was 4 mm, and inoculated to the test compound-containing plate medium described above. […] The growth degree of the microorganism on the test compound-containing plate medium thus observed was compared with the growth degree of the microorganism in the untreated group, and % mycelial growth inhibition was calculated by the following equation. R=100(dc−dt)/dc wherein R=% mycelial extension inhibition, dc=flora diameter in untreated plate, dt=flora diameter in treated plate. The results obtained as described above were evaluated as one of the 5 grades according to the following criteria. […] Cucumber fusarium wilt (Fusarium oxysporum) F.c
# Rhynchosporium secalis = test: Plate medium fungicidal assay, barley leaf blotch R.sec (Experimental Example 5); settings: for inhibition at 5 µg/mL / inhibition at 50 µg/mL: Rhynchosporium secalis
# Description: as §1, with “Barley leaf blotch (Rhynchosporium secalis) R.sec” for “Cucumber fusarium wilt (Fusarium oxysporum) F.c”
# [1] = tested on: Pseudocercoporella herpotrichoides; test: Plate medium fungicidal assay, wheat eye spot P.h (Experimental Example 5)
# Description: as §1, with “Wheat eye spot (Pseudocercoporella herpotrichoides) P.h” for “Cucumber fusarium wilt (Fusarium oxysporum) F.c”
# Fusarium graminearum = test: microbe, parasite or virus in culture; settings: for inhibition at 5 µg/mL / inhibition at 50 µg/mL: Fusarium graminearum
# Giberella fujikuroi = test: Plate medium fungicidal assay, rice bakanae disease G.f (Experimental Example 5)
# Description: as §1, with “Rice bakanae disease (Giberella fujikuroi) G.f” for “Cucumber fusarium wilt (Fusarium oxysporum) F.c”
# Phaeosphaeria nodorum = test: Plate medium fungicidal assay, wheat Septoria nodorum blotch P.n (Experimental Example 5); settings: for inhibition at 5 µg/mL / inhibition at 50 µg/mL: Parastagonospora nodorum
# Description: as §1, with “Wheat Septoria nodorum blotch (Phaeosphaeria nodorum) P.n” for “Cucumber fusarium wilt (Fusarium oxysporum) F.c”
# [2] = plate medium containing compound at 5 mg/L
# [3] = plate medium containing compound at 50 mg/L
# [4] = read-out: Growth inhibition grade, P.o
# [5] = read-out: Growth inhibition grade, F.g
# [6] = read-out: growth inhibition grade P.o
# [7] = read-out: growth inhibition grade F.g
Compound,"Growth inhibition grade, P.o (Pyricularia oryzae; [2])","Growth inhibition grade, P.o (Pyricularia oryzae; [3])","Growth inhibition grade, F.c (Fusarium oxysporum; [2])","Growth inhibition grade, F.c (Fusarium oxysporum; [3])","Growth inhibition grade, R.sec (Rhynchosporium secalis; [2])","Growth inhibition grade, R.sec (Rhynchosporium secalis; [3])","Growth inhibition grade, P.h [1, 2]","Growth inhibition grade, P.h [1, 3]","Growth inhibition grade, F.g (Fusarium graminearum; [2])","Growth inhibition grade, F.g (Fusarium graminearum; [3])","Growth inhibition grade, G.f (Giberella fujikuroi; [2])","Growth inhibition grade, G.f (Giberella fujikuroi; [3])","Growth inhibition grade, P.n (Phaeosphaeria nodorum; [2])","Growth inhibition grade, P.n (Phaeosphaeria nodorum; [3])",further results
C[C@@]1(CCl)CC[C@@H](Cc2ccc(Cl)cc2)[C@]1(O)Cn1cncn1 (racemic) [Compound I-101],5 (% Mycerial growth inhibition of 80% or higher),5 (% Mycerial growth inhibition of 80% or higher),5 (% Mycerial growth inhibition of 80% or higher),5 (% Mycerial growth inhibition of 80% or higher),5 (% Mycerial growth inhibition of 80% or higher),5 (% Mycerial growth inhibition of 80% or higher),5 (% Mycerial growth inhibition of 80% or higher),5 (% Mycerial growth inhibition of 80% or higher),5 (% Mycerial growth inhibition of 80% or higher),5 (% Mycerial growth inhibition of 80% or higher),5 (% Mycerial growth inhibition of 80% or higher),5 (% Mycerial growth inhibition of 80% or higher),5 (% Mycerial growth inhibition of 80% or higher),5 (% Mycerial growth inhibition of 80% or higher),
"C[C@]1(CBr)CC[C@@H](Cc2ccc(Cl)cc2)[C@]1(O)Cn1cncn1 (racemic) [Compound I-25, (1RS,2SR,5SR)-2-bromomethyl-5-(4-chlorobenzyl)-2-methyl-1-(1H-1,2,4-triazol-1-ylmethyl)cyclopentanol]",,,,,,,,,,,,,,,"inhibition at 5 µg/mL (Pyricularia oryzae; [4]): > 80%; inhibition at 50 µg/mL (Pyricularia oryzae; [4]): > 80%; inhibition at 5 µg/mL (Fusarium oxysporum; plate medium containing compound at 5 mg/L, read-out: Growth inhibition grade, F.c): > 80%; inhibition at 50 µg/mL (Fusarium oxysporum; plate medium containing compound at 50 mg/L, read-out: Growth inhibition grade, F.c): > 80%; inhibition at 5 µg/mL (Rhynchosporium secalis; plate medium containing compound at 5 mg/L, read-out: Growth inhibition grade, R.sec): > 80%; inhibition at 50 µg/mL (Rhynchosporium secalis; plate medium containing compound at 50 mg/L, read-out: Growth inhibition grade, R.sec): > 80%; inhibition at 5 µg/mL ([1]; plate medium containing compound at 5 mg/L, read-out: Growth inhibition grade, P.h): 40 to 60%; inhibition at 50 µg/mL ([1]; plate medium containing compound at 50 mg/L, read-out: Growth inhibition grade, P.h): > 80%; inhibition at 5 µg/mL (Fusarium graminearum; [5]): > 80%; inhibition at 50 µg/mL (Fusarium graminearum; [5]): > 80%; inhibition at 5 µg/mL (Giberella fujikuroi; plate medium containing compound at 5 mg/L, read-out: Growth inhibition grade, G.f): > 80%; inhibition at 50 µg/mL (Giberella fujikuroi; plate medium containing compound at 50 mg/L, read-out: Growth inhibition grade, G.f): > 80%; inhibition at 5 µg/mL (Phaeosphaeria nodorum; plate medium containing compound at 5 mg/L, read-out: Growth inhibition grade, P.n): 60 to 80%; inhibition at 50 µg/mL (Phaeosphaeria nodorum; plate medium containing compound at 50 mg/L, read-out: Growth inhibition grade, P.n): > 80%"
"C[C@@]1(CCCl)CC[C@@H](Cc2ccc(Cl)cc2)[C@]1(O)Cn1cncn1 (racemic) [Compound I-104, (1RS,2SR,5SR)-5-(4-chlorobenzyl)-2-(2-chloroethyl)-2-methyl-1-(1H-1,2,4-triazol-1-ylmethyl)cyclopentanol]",,,,,,,,,,,,,,,"inhibition at 5 µg/mL (Pyricularia oryzae; [6]): > 80%; inhibition at 50 µg/mL (Pyricularia oryzae; [6]): > 80%; inhibition at 5 µg/mL (Fusarium oxysporum; plate medium, 5 mg/L, read-out: growth inhibition grade F.c): > 80%; inhibition at 50 µg/mL (Fusarium oxysporum; plate medium, 50 mg/L, read-out: growth inhibition grade F.c): > 80%; inhibition at 5 µg/mL (Rhynchosporium secalis; plate medium, 5 mg/L, read-out: growth inhibition grade R.sec): > 80%; inhibition at 50 µg/mL (Rhynchosporium secalis; plate medium, 50 mg/L, read-out: growth inhibition grade R.sec): > 80%; inhibition at 5 µg/mL ([1]; plate medium, 5 mg/L, read-out: growth inhibition grade P.h): > 80%; inhibition at 50 µg/mL ([1]; plate medium, 50 mg/L, read-out: growth inhibition grade P.h): > 80%; inhibition at 5 µg/mL (Fusarium graminearum; [7]): > 80%; inhibition at 50 µg/mL (Fusarium graminearum; [7]): > 80%; inhibition at 5 µg/mL (Giberella fujikuroi; plate medium, 5 mg/L, read-out: growth inhibition grade G.f): > 80%; inhibition at 50 µg/mL (Giberella fujikuroi; plate medium, 50 mg/L, read-out: growth inhibition grade G.f): > 80%; inhibition at 5 µg/mL (Phaeosphaeria nodorum; plate medium, 5 mg/L, read-out: growth inhibition grade P.n): > 80%; inhibition at 50 µg/mL (Phaeosphaeria nodorum; plate medium, 50 mg/L, read-out: growth inhibition grade P.n): > 80%"
C[C@]1(CCl)CC[C@@H](Cc2ccc(F)cc2F)[C@]1(O)Cn1cncn1 (relative stereo) [Compound I-88],5 (% Mycerial growth inhibition of 80% or higher),5 (% Mycerial growth inhibition of 80% or higher),5 (% Mycerial growth inhibition of 80% or higher),5 (% Mycerial growth inhibition of 80% or higher),5 (% Mycerial growth inhibition of 80% or higher),5 (% Mycerial growth inhibition of 80% or higher),5 (% Mycerial growth inhibition of 80% or higher),5 (% Mycerial growth inhibition of 80% or higher),5 (% Mycerial growth inhibition of 80% or higher),5 (% Mycerial growth inhibition of 80% or higher),5 (% Mycerial growth inhibition of 80% or higher),5 (% Mycerial growth inhibition of 80% or higher),5 (% Mycerial growth inhibition of 80% or higher),5 (% Mycerial growth inhibition of 80% or higher),

# Source: patent US9145351B2, “Azole derivatives, methods for producing the same, intermediate thereof, agro-horticultural agents” (KUREHA CORPORATION, priority 2009, dated 2015)
